Measured values taken from ChEMBL document CHEMBL1137934, “Inhibition of monoamine oxidases by coumarin-3-acyl derivatives: biological activity and computational study” (Bioorg Med Chem Lett, 2004).

Legend:
[1] = biological target: Amine oxidase [flavin-containing] B (Bos taurus) (UniProt P56560)
[2] = biological target: Amine oxidase [flavin-containing] A (Bos taurus) (UniProt P21398)

Amine oxidase [flavin-containing] B (Bos taurus), sequence (P56560 whole entry, looked up): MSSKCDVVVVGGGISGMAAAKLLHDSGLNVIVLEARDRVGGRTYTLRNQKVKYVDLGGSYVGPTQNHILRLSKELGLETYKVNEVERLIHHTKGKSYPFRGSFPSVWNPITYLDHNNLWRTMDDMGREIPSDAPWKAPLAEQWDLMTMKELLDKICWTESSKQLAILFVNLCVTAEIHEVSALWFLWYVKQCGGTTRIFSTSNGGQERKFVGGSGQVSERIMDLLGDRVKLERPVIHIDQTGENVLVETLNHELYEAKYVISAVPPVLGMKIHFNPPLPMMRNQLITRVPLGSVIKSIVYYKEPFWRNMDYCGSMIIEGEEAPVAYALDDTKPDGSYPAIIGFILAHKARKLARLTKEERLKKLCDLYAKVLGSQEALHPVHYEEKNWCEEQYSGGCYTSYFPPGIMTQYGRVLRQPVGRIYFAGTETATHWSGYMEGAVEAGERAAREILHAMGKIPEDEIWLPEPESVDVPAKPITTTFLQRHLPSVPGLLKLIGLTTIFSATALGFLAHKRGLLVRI

For `CCOC(=O)C1=Cc2cc(Cl)ccc2CC1=O`, the IC50 [1] was 1000 nM and the IC50 [2] was 501 nM.
